Results taken from the supplement of paper PMC10307832.

Tests used:
Test in all cases: relative viability (nuclei count vs DMSO), 5 days (fraction); higher = more cells survive
[1] = tested on: NCI-H1648
Summary of the method: (§1)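 Lung cancer cell lines, seeded in 1536-well plates, were treated the following day by pin tool with a single drug or with five library-drug doses (not always all listed) in √10 steps on top of a fixed anchor-drug dose. Cells were fixed and nuclei stained in one step after 5 days, and nuclei were counted. Relative viability is the nuclei count for treated wells divided by that for vehicle wells, reported as medians of duplicate plates.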

[2] = tested on: RERF-LC-KJ
Summary of the method: as §1

[3] = tested on: NCI-H520
Summary of the method: as §1

[4] = tested on: NCI-H522
Summary of the method: as §1

[5] = tested on: NCI-H1651
Summary of the method: as §1

[6] = tested on: A549
Summary of the method: as §1

[7] = tested on: IA-LM
Summary of the method: as §1

CC1(C)CCC(c2ccc(Cl)cc2)=C(CN2CCN(c3ccc(C(=O)NS(=O)(=O)c4ccc(N[C@H](CCN5CCOCC5)CSc5ccccc5)c(S(=O)(=O)C(F)(F)F)c4)cc3)CC2)C1 [Navitoclax] + CC(=O)c1c(C)c2cnc(Nc3ccc(N4CCNCC4)cn3)nc2n(C2CCCC2)c1=O [Palbociclib] (partner 0.5 µM)
relative viability ([1]; first compound 0.005 µM): 0.274 | relative viability ([1]; first compound 0.01581 µM): 0.269 | relative viability ([1]; first compound 0.1581 µM): 0.289 | relative viability ([1]; first compound 0.5 µM): 0.328 | relative viability ([2]; first compound 0.005 µM): 1.06 | relative viability ([2]; first compound 0.01581 µM): 1.01 | relative viability ([2]; first compound 0.05 µM): 1.14 | relative viability ([2]; first compound 0.1581 µM): 1.07 | relative viability ([2]; first compound 0.5 µM): 1.01 | relative viability ([3]; first compound 0.005 µM): 0.273 | relative viability ([3]; first compound 0.01581 µM): 0.25 | relative viability ([3]; first compound 0.05 µM): 0.18 | relative viability ([3]; first compound 0.1581 µM): 0.182 | relative viability ([3]; first compound 0.5 µM): 0.217 | relative viability ([4]; first compound 0.005 µM): 1.02 | relative viability ([4]; first compound 0.01581 µM): 1.05 | relative viability ([4]; first compound 0.05 µM): 1.06 | relative viability ([4]; first compound 0.1581 µM): 0.735 | relative viability ([4]; first compound 0.5 µM): 0.942 | relative viability ([5]; first compound 0.005 µM): 0.513 | relative viability ([5]; first compound 0.01581 µM): 0.552 | relative viability ([5]; first compound 0.05 µM): 0.494 | relative viability ([5]; first compound 0.1581 µM): 0.513 | relative viability ([5]; first compound 0.5 µM): 0.54

CC1(C)CCC(c2ccc(Cl)cc2)=C(CN2CCN(c3ccc(C(=O)NS(=O)(=O)c4ccc(N[C@H](CCN5CCOCC5)CSc5ccccc5)c(S(=O)(=O)C(F)(F)F)c4)cc3)CC2)C1 [Navitoclax] + Nc1nc2[nH]cc(CCc3ccc(C(=O)N[C@@H](CCC(=O)O)C(=O)O)cc3)c2c(=O)[nH]1 [Pemetrexed] (partner 0.2 µM)
relative viability ([1]; first compound 0.005 µM): 0.868 | relative viability ([1]; first compound 0.01581 µM): 0.747 | relative viability ([1]; first compound 0.1581 µM): 0.563 | relative viability ([1]; first compound 0.5 µM): 0.833 | relative viability ([2]; first compound 0.005 µM): 0.476 | relative viability ([2]; first compound 0.01581 µM): 0.38 | relative viability ([2]; first compound 0.05 µM): 0.45 | relative viability ([2]; first compound 0.1581 µM): 0.484 | relative viability ([2]; first compound 0.5 µM): 0.496 | relative viability ([3]; first compound 0.005 µM): 0.713 | relative viability ([3]; first compound 0.01581 µM): 0.743 | relative viability ([3]; first compound 0.05 µM): 0.699 | relative viability ([3]; first compound 0.1581 µM): 0.571 | relative viability ([3]; first compound 0.5 µM): 0.681 | relative viability ([4]; first compound 0.005 µM): 1.07 | relative viability ([4]; first compound 0.01581 µM): 1.28 | relative viability ([4]; first compound 0.05 µM): 0.885 | relative viability ([4]; first compound 0.1581 µM): 1.11 | relative viability ([4]; first compound 0.5 µM): 1.13 | relative viability ([5]; first compound 0.005 µM): 0.682 | relative viability ([5]; first compound 0.01581 µM): 0.552 | relative viability ([5]; first compound 0.05 µM): 0.503 | relative viability ([5]; first compound 0.1581 µM): 0.633 | relative viability ([5]; first compound 0.5 µM): 0.548

CC1(C)CCC(c2ccc(Cl)cc2)=C(CN2CCN(c3ccc(C(=O)NS(=O)(=O)c4ccc(N[C@H](CCN5CCOCC5)CSc5ccccc5)c(S(=O)(=O)C(F)(F)F)c4)cc3)CC2)C1 [Navitoclax] + Nc1ncn([C@H]2C[C@H](O)[C@@H](CO)O2)c(=O)n1 [Decitabine] (partner 2 µM)
relative viability ([1]; first compound 0.005 µM): 0.528 | relative viability ([1]; first compound 0.01581 µM): 0.511 | relative viability ([1]; first compound 0.1581 µM): 0.518 | relative viability ([1]; first compound 0.5 µM): 0.44 | relative viability ([2]; first compound 0.005 µM): 0.834 | relative viability ([2]; first compound 0.01581 µM): 0.55 | relative viability ([2]; first compound 0.05 µM): 0.669 | relative viability ([2]; first compound 0.1581 µM): 0.733 | relative viability ([2]; first compound 0.5 µM): 0.708 | relative viability ([3]; first compound 0.005 µM): 0.432 | relative viability ([3]; first compound 0.01581 µM): 0.48 | relative viability ([3]; first compound 0.05 µM): 0.423 | relative viability ([3]; first compound 0.1581 µM): 0.487 | relative viability ([3]; first compound 0.5 µM): 0.489 | relative viability ([6]; first compound 0.005 µM): 0.252 | relative viability ([6]; first compound 0.01581 µM): 0.249 | relative viability ([6]; first compound 0.05 µM): 0.204 | relative viability ([6]; first compound 0.1581 µM): 0.271 | relative viability ([6]; first compound 0.5 µM): 0.246 | relative viability ([4]; first compound 0.005 µM): 0.685 | relative viability ([4]; first compound 0.01581 µM): 0.696 | relative viability ([4]; first compound 0.05 µM): 0.699 | relative viability ([4]; first compound 0.1581 µM): 0.547 | relative viability ([4]; first compound 0.5 µM): 0.712 | relative viability ([5]; first compound 0.005 µM): 0.797 | relative viability ([5]; first compound 0.01581 µM): 0.591 | relative viability ([5]; first compound 0.05 µM): 0.42 | relative viability ([5]; first compound 0.1581 µM): 0.628 | relative viability ([5]; first compound 0.5 µM): 0.644

CC1(C)CCC(c2ccc(Cl)cc2)=C(CN2CCN(c3ccc(C(=O)NS(=O)(=O)c4ccc(N[C@H](CCN5CCOCC5)CSc5ccccc5)c(S(=O)(=O)C(F)(F)F)c4)cc3)CC2)C1 [Navitoclax] + O=C(CCCCCCC(=O)Nc1ccccc1)NO [Vorinostat] (partner 1 µM)
relative viability ([1]; first compound 0.005 µM): 0.292 | relative viability ([1]; first compound 0.01581 µM): 0.471 | relative viability ([1]; first compound 0.1581 µM): 0.412 | relative viability ([1]; first compound 0.5 µM): 0.431 | relative viability ([2]; first compound 0.005 µM): 0.718 | relative viability ([2]; first compound 0.01581 µM): 0.654 | relative viability ([2]; first compound 0.05 µM): 0.645 | relative viability ([2]; first compound 0.1581 µM): 0.673 | relative viability ([2]; first compound 0.5 µM): 0.622 | relative viability ([7]; first compound 0.005 µM): 0.884 | relative viability ([7]; first compound 0.01581 µM): 0.937 | relative viability ([7]; first compound 0.05 µM): 0.919 | relative viability ([7]; first compound 0.1581 µM): 0.875 | relative viability ([7]; first compound 0.5 µM): 0.965 | relative viability ([3]; first compound 0.005 µM): 0.743 | relative viability ([3]; first compound 0.01581 µM): 0.817 | relative viability ([3]; first compound 0.05 µM): 0.704 | relative viability ([3]; first compound 0.1581 µM): 0.691 | relative viability ([3]; first compound 0.5 µM): 0.749 | relative viability ([4]; first compound 0.005 µM): 0.957 | relative viability ([4]; first compound 0.01581 µM): 0.934 | relative viability ([4]; first compound 0.05 µM): 0.841 | relative viability ([4]; first compound 0.1581 µM): 0.878 | relative viability ([4]; first compound 0.5 µM): 0.91 | relative viability ([5]; first compound 0.005 µM): 0.582 | relative viability ([5]; first compound 0.01581 µM): 0.575 | relative viability ([5]; first compound 0.05 µM): 0.466 | relative viability ([5]; first compound 0.1581 µM): 0.573 | relative viability ([5]; first compound 0.5 µM): 0.598
